One assay deals with Daudi cells. The assay can be described thus: Daudi Cell Proliferation (WST-1 cell viability). Type of assay: cell-based. The note with it: Homo sapiens, 96 h; Daudi cells (Burkitt lymphoma cell line), treated for 4 days, viability by WST-1 relative to vehicle control. As for the experimental part:
Daudi cells, a Burkitt lymphoma cell line, was treated for 4 days with the indicated compound (10 nM, 100 nM, 1 μM, 10 μM, and 100 μM) or vehicle (DMSO), and cell viability was determined using the WST-1 tetrazolium reagent (Roche), and results were expressed as the percentage viability relative to the vehicle control, which was set at 100%. Based on resulting data, an IC50 was calculated for each compound.
IC50 values less than or equal to 2 μM are represented by “A;” IC50 values greater than 2 μM and less than or equal to 30 μM are represented by “B;” and IC50 values greater than 30 μM are represented by “C.”
(Formazan colour is commonly taken as a measure of viable cells.)

The target in a further assay is T1, FGFR (G697C) (Homo sapiens, UniProt P22607, G697C).
T1 construct: made in house
T1 sequence (P22607 23-806 G697C): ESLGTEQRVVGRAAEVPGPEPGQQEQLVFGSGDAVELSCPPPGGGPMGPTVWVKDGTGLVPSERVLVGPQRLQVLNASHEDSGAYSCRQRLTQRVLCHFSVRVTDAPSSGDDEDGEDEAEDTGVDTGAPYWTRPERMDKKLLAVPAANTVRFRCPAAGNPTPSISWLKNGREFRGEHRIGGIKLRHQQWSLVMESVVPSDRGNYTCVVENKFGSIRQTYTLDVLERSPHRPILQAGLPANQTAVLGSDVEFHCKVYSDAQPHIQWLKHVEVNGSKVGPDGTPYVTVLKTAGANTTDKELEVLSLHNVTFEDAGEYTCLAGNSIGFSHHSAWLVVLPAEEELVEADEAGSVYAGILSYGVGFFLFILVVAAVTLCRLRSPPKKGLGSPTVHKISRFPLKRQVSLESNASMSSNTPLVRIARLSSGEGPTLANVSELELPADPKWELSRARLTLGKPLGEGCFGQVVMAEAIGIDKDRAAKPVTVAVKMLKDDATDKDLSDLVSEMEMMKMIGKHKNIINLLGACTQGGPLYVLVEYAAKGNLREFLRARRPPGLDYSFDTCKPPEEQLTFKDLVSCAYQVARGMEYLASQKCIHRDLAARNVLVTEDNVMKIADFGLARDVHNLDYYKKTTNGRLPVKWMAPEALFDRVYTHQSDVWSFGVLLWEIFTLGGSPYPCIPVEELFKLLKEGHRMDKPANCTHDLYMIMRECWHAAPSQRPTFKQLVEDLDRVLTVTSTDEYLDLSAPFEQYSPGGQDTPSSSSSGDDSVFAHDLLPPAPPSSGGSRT
The assay can be described thus: Kinase Inhibition Assay (kinase-tagged phage / affinity bead competition binding, qPCR). The settings on record: Compounds were tested at 500 nM; read-out: FGFR (G697C) (Percent Control). As to the method: (§1) Kinase-tagged T7 phage strains were grown in parallel in 24-well blocks in an E. coli host derived from the BL21 strain. E. coli were grown to log-phase and infected with T7 phage from a frozen stock (multiplicity of infection=0.4) and incubated with shaking at 32° C. until lysis (90-150 minutes). The lysates were centrifuged (6,000×g) and filtered (0.2 μm) to remove cell debris. The remaining kinases were produced in HEK-293 cells and subsequently tagged with DNA for qPCR detection. Streptavidin-coated magnetic beads were treated with biotinylated small molecule ligands for 30 minutes at room temperature to generate affinity resins for kinase assays. The liganded beads were blocked with excess biotin and washed with blocking buffer (SeaBlock (Pierce), 1% BSA, 0.05% Tween 20, 1 mM DTT) to remove unbound ligand and to reduce non-specific phage binding.
Binding reactions were assembled by combining kinases, liganded affinity beads, and test compounds in 1× binding buffer (20% SeaBlock, 0.17×PBS, 0.05 Tween 20, 6 mM DTT). Test compounds were prepared as 40× stocks in 100% DMSO and directly diluted into the assay. All reactions were performed in polypropylene 384-well plates in a final volume of 0.02 mL. The assay plates were incubated at room temperature with shaking for 1 hour and the affinity beads were washed with wash buffer (1×PBS, 0.05% Tween 20). […]
Background: Quantitative PCR measures a nucleic acid by following its amplification.

In a further assay the target is T2, FES (Homo sapiens, UniProt P07332).
T2 construct: made in house
T2 sequence (P07332 whole entry, species assumed): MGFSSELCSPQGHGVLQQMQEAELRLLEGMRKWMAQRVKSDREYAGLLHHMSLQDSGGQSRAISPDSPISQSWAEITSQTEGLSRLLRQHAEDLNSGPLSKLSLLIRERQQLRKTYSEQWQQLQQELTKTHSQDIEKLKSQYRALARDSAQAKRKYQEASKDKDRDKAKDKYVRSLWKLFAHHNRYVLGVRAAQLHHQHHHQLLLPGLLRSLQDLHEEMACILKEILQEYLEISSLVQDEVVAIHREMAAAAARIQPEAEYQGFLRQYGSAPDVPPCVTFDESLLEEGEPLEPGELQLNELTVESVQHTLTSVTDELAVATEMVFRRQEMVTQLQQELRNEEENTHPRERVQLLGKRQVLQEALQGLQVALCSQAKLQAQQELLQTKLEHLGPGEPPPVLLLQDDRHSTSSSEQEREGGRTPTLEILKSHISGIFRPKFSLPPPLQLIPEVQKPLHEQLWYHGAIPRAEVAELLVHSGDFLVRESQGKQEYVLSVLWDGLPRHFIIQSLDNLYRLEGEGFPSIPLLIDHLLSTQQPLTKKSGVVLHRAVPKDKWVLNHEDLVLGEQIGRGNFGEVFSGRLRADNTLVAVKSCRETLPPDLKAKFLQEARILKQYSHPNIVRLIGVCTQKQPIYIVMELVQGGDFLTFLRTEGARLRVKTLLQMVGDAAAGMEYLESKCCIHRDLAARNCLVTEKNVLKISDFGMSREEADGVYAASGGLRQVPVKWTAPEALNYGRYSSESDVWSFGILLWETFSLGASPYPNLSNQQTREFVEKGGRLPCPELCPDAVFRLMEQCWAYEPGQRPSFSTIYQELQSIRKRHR
The assay is described as above. The settings on record: Compounds were tested at 500 nM; read-out: FES (Percent Control). As for the experimental part: as §1, with “Streptavidin-coated magnetic beads were treated with biotinylated small molecule ligands for 30 minutes at room temperature to generate affinity resins for kinase assays.” left out
Test compounds were prepared as 40× stocks in 100% DMSO and directly diluted into the assay. […] The kinase concentration in the eluates was measured by qPCR.

IC50 and remaining binding data for six molecules are collected here from patent US10144745B2, “Chimeric compounds targeting proteins, compositions, methods, and uses thereof” (BioTheryX, Inc., priority 2016, dated 2018).

A word on the IC50: it is the concentration needed to halve the response being measured. The low end stands for higher potency, the high end for lower potency.

Molecules are shown by their SMILES. Where only a bound is given, the exact number is not on record here.

In turn, `CC(C)c1cccc2c1CN([C@H]1CCCC(=O)NC1=O)C2=O` [Compound 45, (S)-3-(4-Isopropyl-1-oxoisoindolin-2-yl)azepane-2,7-dione] had an IC50 in the assay on Daudi cells of over 30 µM.

`C=C(C)c1cccc2c1CN([C@H]1CCCC(=O)NC1=O)C2=O` [Compound 43, (S)-3-(1-Oxo-4-(prop-1-en-2-yl)isoindolin-2-yl)azepane-2,7-dione] registered an IC50 in the assay with Daudi cells of at most 2 µM.

Consider `Cc1cnc(Nc2ccc(OCCN3CCCC3)cc2)nc1Nc1cccc(S(=O)(=O)NC(C)(C)C)c1` [Fedratinib, reference compound], for which, at FGFR (G697C), the remaining binding at 0.5 µM stood at 57%.

The molecule `O=C1CCC[C@H](N2Cc3c(cccc3C(F)F)C2=O)C(=O)N1` [Compound 42, (S)-3-(4-(Difluoromethyl)-1-oxoisoindolin-2-yl)azepane-2,7-dione] yielded an IC50 with Daudi cells of 2 to 30 µM.

As to `Nc1cccc2c1CN(C1CCC(=O)NC1=O)C2=O` (stereo not shown) [Lenalidomide, reference compound], the IC50 with Daudi cells was over 30 µM.

For the molecule `Cc1cnc(Nc2ccc(OCCCNCC(=O)Nc3cccc4c3CN([C@H]3CCCC(=O)NC3=O)C4=O)cc2)nc1Nc1cccc(S(=O)(=O)NC(C)(C)C)c1` [Compound 66, (S)-2-((3-(4-((4-((3-(N-(tert-Butyl)sulfamoyl)phenyl)amino)-5-methylpyrimidin-2-yl)amino)phenoxy)propyl)amino)-N-(2-(2,7-dioxoazepan-3-yl)-1-oxoisoindolin-4-yl)acetamide], the remaining binding at 0.5 µM on FGFR (G697C) was 4.8%; at FES it was 15%.
